# Test results as given in US20230044427A1, “EVAPORATION RETARDANT MEMBRANE FOR ODORANT COMPOSITIONS” (BASF SE, priority 2020, published 2023).
# Experiments:
# [1] = water / 1-octanol; cited from earlier work
# [2] = Evaporation cell test: weight loss of volatile compound through coated or uncoated paper; type: physicochemical; details: 23° C., 50% humidity; for Weight loss of volatile compound through uncoated paper V2: uncoated paper V2, no coating
# Description: The test was carried out according to the method described by Diehl, H. Pfeiffer, A.-M, Seyffer H., (2014), New testing method for functional barriers, International Paperworld IPW 8-11. All tests were carried out in a climate chamber at 23° C. and 50% humidity.
# For this, circular specimens were cut from the paper coated with the respective coating. The specimen was placed in the holder of the evaporation cell. A defined amount of the respective volatile compound was filled into the chamber of the evaporation cell, and the chamber was closed by the holder and immediately weighed thereafter to an accuracy of 0.1 mg. The closed evaporation cell was reweighed after 1 h, 4 h, 1 d and 2 d.
# [3] = vapor pressure at 25° C.; cited from earlier work
# [4] = paper 1, Polymer dispersion 1, thickness 10 g/m^2, coverage 50%
# [5] = paper 1, Polymer dispersion 2, thickness 10 g/m^2, coverage 50%
# [6] = paper 2, Polymer dispersion 1, thickness 15 g/m^2, coverage 30%
# [7] = paper 2, Polymer dispersion 2, thickness 5 g/m^2, coverage 70%
# [8] = paper V1, Polymer dispersion 1, thickness 10 g/m^2, coverage 100%
# [9] = paper V1, Polymer dispersion 2, thickness 10 g/m^2, coverage 100%
"Weight loss of volatile compound through respective coating of paper 1 [2, 4]","Weight loss of volatile compound through respective coating of paper 1 [2, 5]","Weight loss of volatile compound through respective coating of paper 2 [2, 6]","Weight loss of volatile compound through respective coating of paper 2 [2, 7]","Weight loss of volatile compound through respective coating of paper V1 [2, 8]","Weight loss of volatile compound through respective coating of paper V1 [2, 9]",Weight loss of volatile compound through uncoated paper V2 [2],SMILES,Log Pow [1],VP(25° C.) [3]
2 g/(m^2d),2 g/(m^2d),5 g/(m^2d),4 g/(m^2d),1 g/(m^2d),1 g/(m^2d),950 g/(m^2d),CC(C)=CCCC(C)CC=O (stereo not drawn) [Citronellal],3.8,0.5 mbar
1320 g/(m^2d),1300 g/(m^2d),3300 g/(m^2d),653 g/(m^2d),660 g/(m^2d),650 g/(m^2d),2450 g/(m^2d),CCOC(C)=O [Ethyl acetate],0.9,7 mbar
291 g/(m^2d),702 g/(m^2d),725 g/(m^2d),353 g/(m^2d),145 g/(m^2d),350 g/(m^2d),3750 g/(m^2d),CCCCCC=O [Hexanal],1.9,15 mbar
120 g/(m^2d),204 g/(m^2d),295 g/(m^2d),103 g/(m^2d),60 g/(m^2d),100 g/(m^2d),2100 g/(m^2d),CC(=O)OCCC(C)C [Isoamyl acetate],2.5,5 mbar
300 g/(m^2d),320 g/(m^2d),749 g/(m^2d),163 g/(m^2d),150 g/(m^2d),160 g/(m^2d),3500 g/(m^2d),CC(=O)OCC(C)C [Isobutyl acetate],1.8,20 mbar

SMILES,"Weight loss of volatile compound through respective coating of paper 1 [2, 4]","Weight loss of volatile compound through respective coating of paper 1 [2, 5]","Weight loss of volatile compound through respective coating of paper 2 [2, 6]","Weight loss of volatile compound through respective coating of paper 2 [2, 7]","Weight loss of volatile compound through respective coating of paper V1 [2, 8]","Weight loss of volatile compound through respective coating of paper V1 [2, 9]",Weight loss of volatile compound through uncoated paper V2 [2],Log Pow [1],VP(25° C.) [3]
C=C(C)[C@H]1CC=C(C)CC1 [Limonene],2 g/(m^2d),100 g/(m^2d),5 g/(m^2d),53 g/(m^2d),1 g/(m^2d),50 g/(m^2d),1750 g/(m^2d),4.6,2 mbar
CCCCCCC [n-Heptane],2 g/(m^2d),1200 g/(m^2d),5 g/(m^2d),603 g/(m^2d),1 g/(m^2d),600 g/(m^2d),4500 g/(m^2d),4.8,61 mbar
CCCCCC [n-Hexane],4 g/(m^2d),1900 g/(m^2d),10 g/(m^2d),953 g/(m^2d),2 g/(m^2d),950 g/(m^2d),> 4000 g/(m^2d),3.9,201 mbar
